Experimental data as given in patent US11472843B2, “Malacidins and methods of use” (The Rockefeller University, priority 2017, dated 2022).
≈ marks a conversion by molar mass, not a printed value. Read-outs that look alike come from different tables or passages of the source.

Tests used:
E. faecium VRE = experiment: MIC assay, E. faecium VRE; format: cell-based, Enterococcus faecium; settings: Enterococcus faecium VRE; Vancomycin (VRE); read-out: MIC
Experimental: (§1) MIC assays were performed in duplicate in 96-well microtiter plates on the basis of the protocol recommended by the Clinical and Laboratory Standards Institute (Cockerill, 2012, Clinical and Laboratory Standards Institute). All presented data are the average of at least three independent assays. Stock solutions of malacidin or daptomycin (2 mg ml^−1 in H2O) were added to the first well in a row and serially diluted (twofold per transfer) across the microtiter plate. CaCl2 was supplemented to media at a final concentration of 15 mM and fetal bovine serum (ATCC) was added to media (1:10) to test the effect of serum. Overnight cultures of bacteria were diluted 5,000-fold, and 50 μl was used as an inoculum in each well. MIC values were determined by visual inspection after 18 h incubation (30° C., static growth). For the enhanced calcium titration experiments, standard MIC assays were performed with methicillin-resistant Staphylococcus aureus (MRSA) PFGE strain type USA300 in media supplemented with CaCl2 at: 25.0, 18.8, 14.1, 7.03, 3.52, 2.50, 1.76, 0.880, 0.440, 0.250 and 0 mM. To assess the effects of monovalent and divalent cations on malacidin activity, standard MIC assays were performed with MRSA USA300 in media supplemented with 15 mM CaCl2, MgCl2, MnCl2, ZnCl2, SrCl2, NaCl and KCl. To evaluate the effects of pulmonary surfactants on activity against a community-acquired pneumonia-causing pathogen, standard MIC assays were performed with Streptococcus pneumoniae TCH8431 in media supplemented with both 15 mM CaCl1 and Survanta (beractant) at a final concentration of 5, 1, 0.5, 0.25 or 0% (volume/volume (v/v) percent).

Escherichia coli BAS849 = experiment: MIC assay, E. coli BAS849; format: cell-based
Experimental: as §1, with “To evaluate the effects of pulmonary surfactants on activity against a community-acquired pneumonia-causing pathogen, standard MIC assays were performed with Streptococcus pneumoniae TCH8431 in media supplemented with both 15 mM CaCl1 and Survanta (beractant) at a final concentration of 5, 1, 0.5, 0.25 or 0% (volume/volume (v/v) percent).” left out

S. aureus NRS146 = experiment: MIC assay, S. aureus NRS146; format: cell-based, Staphylococcus aureus; settings: NRS 146 / VISA; Staphylococcus aureus NRS146; β-lactams, Vancomycin (VISA); read-out: MIC
Experimental: as §1

[1] = tested on: Streptococcus pneumoniae TCH8431; settings: from Silverman et al., 2005; cited from earlier work
S. aureus NRS108 = experiment: MIC assay, S. aureus NRS108; format: cell-based, Staphylococcus aureus; settings: Staphylococcus aureus NRS108; β-lactams, Gentamicin, Kanamycin; read-out: MIC
Experimental: as §1

S. aureus NRS140 = experiment: MIC assay, S. aureus NRS140; format: cell-based, Staphylococcus aureus; settings: Staphylococcus aureus NRS140; β-lactams, Erythromycin, Spectinomycin; read-out: MIC
Experimental: as §1

[2] = tested on: Klebsiella pneumonia ATCC 10031; experiment: MIC assay, Klebsiella pneumonia; format: cell-based
Experimental: as §1

S. aureus BAA-42 = experiment: MIC assay, S. aureus BAA-42; format: cell-based, Staphylococcus aureus; settings: BAA42; Staphylococcus aureus BAA-42; β-lactams; read-out: MIC
Experimental: as §1

[3] = tested on: Bacillus subtilis 168 IAI; experiment: MIC assay, B. subtilis; format: cell-based; settings: Bacillus subtilis 168 IAI; read-out: MIC
Experimental: as §1

S. aureus NRS100 = experiment: MIC assay, S. aureus NRS100; format: cell-based, Staphylococcus aureus; settings: Staphylococcus aureus NRS100; β-lactams, Tetracycline; read-out: MIC
Experimental: as §1

S. aureus COL = experiment: MIC assay, S. aureus COL; format: cell-based, Staphylococcus aureus; settings: Staphylococcus aureus COL; β-lactams; read-out: MIC
Experimental: as §1

[4] = tested on: Streptococcus pneumoniae TCH8431; experiment: MIC assay, S. pneumoniae; format: cell-based; settings: Streptococcus pneumoniae TCH8431; read-out: MIC
Experimental: as §1

[5] = tested on: Candida albicans ATCC 1884; experiment: MIC assay, C. albicans; format: cell-based; settings: Candida albicans ATCC 1884
Experimental: as §1

[6] = tested on: Pseudomonas aeruginosa PAO1; experiment: MIC assay, P. aeruginosa; format: cell-based
Experimental: as §1

[7] = tested on: Salmonella enterica IR 715; experiment: MIC assay, Salmonella enterica; format: cell-based
Experimental: as §1

Escherichia coli DH5α = experiment: MIC assay, E. coli DH5α; format: cell-based
Experimental: as §1

[8] = tested on: Acinetobacter baumannii ATCC 17978; experiment: MIC assay, A. baumannii; format: cell-based
Experimental: as §1

MRSA USA300 = experiment: Membrane leakage assay (SYTOX green); format: cell-based, Staphylococcus aureus; settings: 20 μg ml^−1
Experimental: The effects of malacidin on membrane integrity was assessed using SYTOX green. In brief, single colonies of MRSA USA300 were grown in LB media with and without 15 mM CaCl2 to an OD600 nm of 0.35. Nine hundred microlitres of cells were mixed with 100 μL of 17 μM SYTOX green dye (Thermo Fisher). The resulting mixture was incubated for 5 min at 22° C., and then distributed to a microtiter plate at 50 μl per well. An initial reading of fluorescence pre-antibiotic addition was measured at excitation and emission wavelengths of 488 nm and 523 nm, respectively. Fifty microlitres of antibiotics was added to respective wells at a final concentration of 20 μg ml^−1. Measurements were immediately collected for 10 min. To assess the effects of malacidin on membrane depolarization, similar assays were set up using the membrane potential probe, DiBAC4 (bis-(1,3-dibutylbarbituric acid)trimethine oxonol). Single colonies of MRSA USA300 were grown in LB media with and without 15 mM CaCl2 to an OD600 nm of 0.35. Nine hundred microlitres of cells were mixed with 100 μl of 20 μg ml DiBAC4dye (Thermo Fisher). The resulting mixture was incubated for 5 min at 22° C., and then distributed to a microtiter plate at 50 μl per well. An initial reading of fluorescence pre-antibiotic addition was measured at excitation and emission wavelengths of 492 nm and 515 nm, respectively. Fifty microlitres of antibiotics was added to respective wells at a final concentration of 20 μg ml^−1. Measurements were immediately collected for 10 min. Representative examples from three technical replicates are shown.

E. faecium Com15 = experiment: MIC assay, E. faecium Com15; format: cell-based, Enterococcus faecium; settings: Enterococcus faecium Com15
Experimental: as §1

[9] = tested on: Cryptococcus neoformans ATCC 32045; experiment: MIC assay, C. neoformans; format: cell-based; settings: Cryptococcus neoformans ATCC 32045
Experimental: as §1

S. aureus USA300 = experiment: MIC assay, S. aureus USA300 (MRSA); format: cell-based, Staphylococcus aureus; settings: Staphylococcus aureus USA300, β-lactams (Methicillin, Oxacillin, Penicillin)
Experimental: as §1

[10] = tested on: UDP-MurNAc-pentapeptide in MRSA USA300; experiment: UDP-MurNAc-pentapeptide accumulation assay; format: cell-based, Staphylococcus aureus; settings: 10 μg ml^−1, 60 min, UPLC-MS
Experimental: The intracellular accumulation of the cell wall precursor UDP-MurNAc-pentapeptide after treatment of MRSA USA300 with malacidin was assessed as previously described (Schneider et al., […], Antimicrob Agents Ch 53:1610-18). In brief, single colonies of MRSA USA300 were grown in LB media with and without 15 mM CaCl2 to an OD600 nm of 0.6. […] of cells and medium were incubated with a final concentration of 130 μg ml^−1 chloramphenicol for 15 min at 37° C. Antibiotics to be assayed were added at 10 μg ml^−1 and incubated for 60 min at 37° C. Vancomycin, known to form a complex with lipid II, was used as a positive control. Cells were collected by centrifugation, and resuspended in 30 μl dH2O and incubated in boiling water for 15 min. The cell extract was then centrifuged at 14,000 g. Supernatant was analysed for UDP-linked cell wall precursors by a UPLC-MS system. Experiments were performed with biological replicates.

## CCCCCCCCCC(=O)N[C@@H](Cc1c[nH]c2ccccc12)C(=O)N[C@H](CC(N)=O)C(=O)N[C@@H](CC(=O)O)C(=O)N[C@@H]1C(=O)NCC(=O)N[C@@H](CCCN)C(=O)N[C@@H](CC(=O)O)C(=O)N[C@H](C)C(=O)N[C@@H](CC(=O)O)C(=O)NCC(=O)N[C@H](CO)C(=O)N[C@@H]([C@H](C)CC(=O)O)C(=O)N[C@@H](CC(=O)c2ccccc2N)C(=O)O[C@@H]1C [Daptomycin, daptomycin, reference compound]
E. faecium VRE
  MIC: 0.4 to 2 µg/mL (≈ 0.247 to 1.23 µM)
Escherichia coli BAS849
  MIC: 50 to 100 µg/mL (≈ 30.9 to 61.7 µM)
S. aureus NRS146
  MIC: 0.2 to 0.8 µg/mL (≈ 0.123 to 0.494 µM)
[1]
  Activity in the presence of pulmonary surfactants: loss of activity
S. aureus NRS108
  MIC: 0.2 to 0.8 µg/mL (≈ 0.123 to 0.494 µM)
S. aureus NRS140
  MIC: 0.2 to 0.8 µg/mL (≈ 0.123 to 0.494 µM)
[2]; Klebsiella pneumoniae, ATCC10031, read-out: MIC
  MIC: > 100 µg/mL
S. aureus BAA-42
  MIC: 0.2 to 0.8 µg/mL (≈ 0.123 to 0.494 µM)
[3]
  MIC: 0.2 to 0.4 µg/mL (≈ 0.123 to 0.247 µM)
S. aureus NRS100
  MIC: 0.2 to 0.8 µg/mL (≈ 0.123 to 0.494 µM)
S. aureus COL
  MIC: 0.2 to 0.8 µg/mL (≈ 0.123 to 0.494 µM)
[4]
  MIC: 0.1 to 0.2 µg/mL (≈ 0.0617 to 0.123 µM)
[5]; ATCC1884, read-out: MIC
  MIC: > 100 µg/mL
[6]; read-out: MIC
  MIC: > 100 µg/mL
[7]; IR715, read-out: MIC
  MIC: > 100 µg/mL
Escherichia coli DH5α; read-out: MIC
  MIC: > 100 µg/mL
[8]; ATCC17978, range of at least three independent experiments, read-out: MIC
  MIC: > 100 µg/mL
MRSA USA300; absence of calcium supplementation
  Membrane leakage (SYTOX green or DiBAC4): No membrane leakage
MRSA USA300; with calcium (15 mM CaCl2)
  Membrane leakage (SYTOX green fluorescence): rapid increase in fluorescence
E. faecium Com15; read-out: MIC
  MIC: 0.4 to 2 µg/mL (≈ 0.247 to 1.23 µM)
[9]; ATCC32045, read-out: MIC
  MIC: > 100 µg/mL
S. aureus USA300; read-out: MIC
  MIC: 0.2 to 0.8 µg/mL (≈ 0.123 to 0.494 µM)

## CN[C@H](CC(C)C)C(=O)N[C@H]1C(=O)N[C@@H](CC(N)=O)C(=O)N[C@H]2C(=O)N[C@H]3C(=O)N[C@H](C(=O)N[C@H](C(=O)O)c4cc(O)cc(O)c4-c4cc3ccc4O)[C@H](O)c3ccc(c(Cl)c3)Oc3cc2cc(c3O[C@@H]2O[C@H](CO)[C@@H](O)[C@H](O)[C@H]2O[C@H]2C[C@](C)(N)[C@H](O)[C@H](C)O2)Oc2ccc(cc2Cl)[C@H]1O [vancomycin, reference compound]
[10]
  Accumulation of cell wall intermediate UDP-MurNAc-pentapeptide: accumulation of the cell wall intermediate UDP-MurNAc-pentapeptide

## malacidin B
[2]
  MIC: >100 µg/mL
[5]
  MIC: >100 µg/mL
[6]
  MIC: >100 µg/mL
[7]
  MIC: >100 µg/mL
Escherichia coli DH5α
  MIC: >100 µg/mL
[8]; range of at least three independent experiments
  MIC: >100 µg/mL
E. faecium Com15
  MIC: 0.8 to 2.0 µg/mL
[9]
  MIC: >100 µg/mL
S. aureus USA300
  MIC: 0.4 to 0.8 µg/mL
